Measured values taken from ChEMBL document CHEMBL1201862, “PubChem BioAssay data set” (2004).
Calls of active or inactive are those of the source.

Biological target: T1, Rac GTPase-activating protein 1 (Homo sapiens, UniProt Q9H0H5)
T1 sequence (Q9H0H5 whole entry): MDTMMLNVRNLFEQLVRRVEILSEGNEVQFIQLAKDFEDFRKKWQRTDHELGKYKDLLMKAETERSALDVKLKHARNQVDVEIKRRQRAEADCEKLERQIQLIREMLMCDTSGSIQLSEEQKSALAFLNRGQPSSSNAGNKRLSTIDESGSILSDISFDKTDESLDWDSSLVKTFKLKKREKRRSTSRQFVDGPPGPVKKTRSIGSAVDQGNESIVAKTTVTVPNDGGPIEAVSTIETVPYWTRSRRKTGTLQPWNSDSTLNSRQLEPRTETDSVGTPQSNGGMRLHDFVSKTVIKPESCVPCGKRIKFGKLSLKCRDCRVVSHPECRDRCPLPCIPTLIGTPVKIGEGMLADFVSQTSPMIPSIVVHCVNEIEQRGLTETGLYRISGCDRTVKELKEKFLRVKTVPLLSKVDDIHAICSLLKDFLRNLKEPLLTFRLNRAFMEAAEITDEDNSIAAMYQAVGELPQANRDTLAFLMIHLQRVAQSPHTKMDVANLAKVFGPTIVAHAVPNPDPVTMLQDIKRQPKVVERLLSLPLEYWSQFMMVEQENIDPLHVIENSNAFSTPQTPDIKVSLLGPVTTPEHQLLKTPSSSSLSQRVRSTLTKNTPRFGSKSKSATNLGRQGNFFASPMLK
Assay: MgcRacGAP GTPase-activating activity inhibitors, confirmation, biochemical, ADP Hunter fluorescence, primary and confirmatory (AID 624330)
Type: functional
Conditions: not given

SMILES	IC50
Cc1cccc(OCC(=O)N2CCN(Cc3ccncc3)CC2)c1	82.9 µM (active)
CCCCN(C)C(=O)C1CCN(Cc2cccc(OCc3ccccc3)c2)CC1	172 µM (active)
O=c1c2c([N+](=O)[O-])cc([N+](=O)[O-])cc2[s+]([O-])n1Cc1ccccc1 (stereo unspecified)	46.6 µM (active)
Cc1ccc(CNc2ncc(-c3ccccc3)n2C)o1	83.2 µM (active)
O=C(Cc1ccccc1)N1CCN(Cc2ccc(F)cc2)CC1	130 µM (active)
Oc1ccc(Nc2ncnc3ccccc23)cc1	15.5 µM (active)
COc1cc(CN2CCC(C(=O)N3CCN(c4ccccc4F)CC3)CC2)ccc1O	110 µM (active)
Nc1nc2c(s1)CCc1ccccc1-2	41.4 µM (active)
Nc1ccc(N2CCCCC2)c(Cl)c1	46.4 µM (active)
CCCCNc1[nH]c(=S)nc2cc(OC)c(OC)cc12	61.8 µM (active)
COc1ccc([C@H]2CN(c3ccc(OC)cc3)C(=O)[C@@H]2CC(=O)Nc2ccccc2)cc1	115 µM (active)
N#Cc1c(O)nsc1Nc1ccccc1	79.5 µM (active)
Oc1ccc(/C=N/Nc2cc(N3CCOCC3)nc(N3CCOCC3)n2)cc1	45.3 µM (active)
C/C(=N\c1ccc(O)cc1)c1sc2ccccc2c1O	123 µM (active)
CCOc1cc(/C=N/NC(=O)c2ccc(=O)n(C)c2)ccc1O	59.6 µM (active)

Biological target: T2, Cytochrome P450 1A2 (Homo sapiens, UniProt P05177);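 note: PubChem cytochrome P450 panel assay, CYP1A2 panel member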
T2 sequence (P05177 whole entry): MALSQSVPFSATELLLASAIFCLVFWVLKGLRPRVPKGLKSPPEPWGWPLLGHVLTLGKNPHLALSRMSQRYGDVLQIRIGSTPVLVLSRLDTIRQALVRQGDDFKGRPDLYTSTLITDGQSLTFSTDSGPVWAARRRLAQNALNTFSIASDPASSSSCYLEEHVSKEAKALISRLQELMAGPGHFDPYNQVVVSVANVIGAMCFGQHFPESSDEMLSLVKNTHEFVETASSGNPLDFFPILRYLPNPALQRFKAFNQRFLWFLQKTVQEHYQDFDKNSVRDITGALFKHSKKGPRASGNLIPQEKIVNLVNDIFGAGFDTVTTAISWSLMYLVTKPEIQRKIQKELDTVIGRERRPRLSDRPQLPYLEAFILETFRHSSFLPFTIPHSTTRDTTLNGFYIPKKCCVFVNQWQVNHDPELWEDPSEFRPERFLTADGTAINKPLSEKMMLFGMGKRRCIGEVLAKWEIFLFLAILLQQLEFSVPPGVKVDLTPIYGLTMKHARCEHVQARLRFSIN
Conditions: not given

SMILES	AC50
Cc1nn(Cc2c(F)c(F)c(F)c(F)c2F)c(C)c1NC(=O)c1cccc(COc2ccc(Cl)cc2)c1	12.6 µM (inconclusive)
CC(C)=NNc1ncnc2[nH]cnc12	0.794 µM (inconclusive)
COc1nc(OCCNC(C)=O)nc(N(C)C)n1	39.8 µM (inconclusive)
COc1ccc(CC(=O)NCc2ccccn2)cc1OC	14.1 µM (inconclusive)
O=c1c(CCc2ccccc2)nc2cncnc2n1Cc1ccccc1Cl	12.6 µM (inconclusive)
O=C(NCc1ccccc1Cl)c1cnccn1	28.2 µM (inconclusive)
O=C1Nc2ccc(S(=O)(=O)O)cc2/C1=N/Nc1ccccc1[N+](=O)[O-]	1 µM (inconclusive)
NNC(N)=O [HYDRAZINECARBOXAMIDE]	39.8 µM (inconclusive)

Tested on: not listed separately
Assay: inhibitors of intracellular T. cruzi replication, confirmation, NIH3T3 host cells, beta-gal luminescence (AID 2044);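 note: intracellular parasites grown in NIH/3T3 mouse fibroblasts as host cells; luminescent beta-galactosidase reporter signal from transgenic T. cruzi replicating inside host cells; inhibitors lower the luminescence signal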
Type: functional, cell-based
Conditions: not given

SMILES	EC50
Cc1cccc(NS(=O)(=O)c2cc(C(=O)N3CCc4ccccc4C3)ccc2Cl)c1C	2.18 µM (active)
CN(C)CCCN(C(=O)c1cccs1)c1nc2cc3c(cc2s1)OCO3	0.163 µM (active)
CCn1c(N=C(S)Nc2ccccc2)nc2ccccc21	0.53 µM (active)
Oc1ccc(N2CCN(Cc3ccc(OCCCN4CCCCC4)cc3)CC2)cc1	0.114 µM (active)
COC(=O)c1ccc(-c2sc3nc(N4CCOCC4)c4c(c3c2N)CCCC4)o1	2.63 µM (active)
COc1ccccc1CCNC1CCC(C(C)(C)C)CC1 (stereo unspecified)	1.37 µM (active)
O=C(c1ccco1)N(CCCN1CCOCC1)c1nc(-c2ccc(Cl)cc2)cs1	1.8 µM (active)
Cc1n[nH]c(-c2ccc(OCc3cnn(-c4ccccc4)c3)cc2O)c1Oc1ccc(Cl)cc1	2.43 µM (active)
COC(=O)C1Cc2c([nH]c3ccccc23)C2(CCN(Cc3ccccc3)CC2)N1 (stereo unspecified)	1.6 µM (active)
COc1cccc(CNc2ccc3c(c2)CCC3)c1	7.93 µM (active)
O=[N+]([O-])c1nn(-c2ccc3c(c2)OCCO3)[n+]([O-])c1NCCCO	0.75 µM (active)
Cc1cc(C)c(S(=O)(=O)c2ccccc2Cl)c(Cl)n1	2.32 µM (active)
Cc1ccc2nc(-c3ccncc3)cc(C(=O)NCCc3ccc(F)cc3)c2c1	1.7 µM (active)
Cc1ccc(Nc2c([N+](=O)[O-])nn(-c3ccc(Cl)cc3)[n+]2[O-])cc1C	0.747 µM (active)
CN(C)c1oc(-c2ccc(OCc3ccc(Cl)cc3)cc2)nc1C#N	8.31 µM (active)
O=C(N/N=C/c1ccc([N+](=O)[O-])o1)C1CCCC1	0.429 µM (active)
C/C(=N\NC(=O)c1cc(-c2cccc(OC(C)C)c2)nc2ccccc12)c1cccnc1	0.611 µM (active)

Tested on: not listed separately
Assay: cytotoxicity toward NIH3T3 fibroblasts, dose response, counter-screen, cell-based, ATP luminescence, mouse fibroblasts (AID 2010);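 note: cells exposed to compound for about 90 hours before reading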
Type: functional
Conditions: not given

SMILES	EC50
Cc1cccc(NS(=O)(=O)c2cc(C(=O)N3CCc4ccccc4C3)ccc2Cl)c1C	> 60 µM (not active)
CN(C)CCCN(C(=O)c1cccs1)c1nc2cc3c(cc2s1)OCO3	> 60 µM (inconclusive)
CCn1c(N=C(S)Nc2ccccc2)nc2ccccc21	> 60 µM (inconclusive)
Oc1ccc(N2CCN(Cc3ccc(OCCCN4CCCCC4)cc3)CC2)cc1	> 30 µM (not active)
COC(=O)c1ccc(-c2sc3nc(N4CCOCC4)c4c(c3c2N)CCCC4)o1	13.2 µM (active)
COc1ccccc1CCNC1CCC(C(C)(C)C)CC1 (stereo unspecified)	> 60 µM (not active)
O=C(c1ccco1)N(CCCN1CCOCC1)c1nc(-c2ccc(Cl)cc2)cs1	> 60 µM (not active)
Cc1n[nH]c(-c2ccc(OCc3cnn(-c4ccccc4)c3)cc2O)c1Oc1ccc(Cl)cc1	> 60 µM (not active)
COC(=O)C1Cc2c([nH]c3ccccc23)C2(CCN(Cc3ccccc3)CC2)N1 (stereo unspecified)	10.1 µM (active)
COc1cccc(CNc2ccc3c(c2)CCC3)c1	> 60 µM (not active)
O=[N+]([O-])c1nn(-c2ccc3c(c2)OCCO3)[n+]([O-])c1NCCCO	> 60 µM (not active)
Cc1cc(C)c(S(=O)(=O)c2ccccc2Cl)c(Cl)n1	> 60 µM (not active)
Cc1ccc2nc(-c3ccncc3)cc(C(=O)NCCc3ccc(F)cc3)c2c1	> 60 µM (not active)
Cc1ccc(Nc2c([N+](=O)[O-])nn(-c3ccc(Cl)cc3)[n+]2[O-])cc1C	> 60 µM (not active)
CN(C)c1oc(-c2ccc(OCc3ccc(Cl)cc3)cc2)nc1C#N	> 60 µM (not active)
O=C(N/N=C/c1ccc([N+](=O)[O-])o1)C1CCCC1	> 60 µM (not active)
C/C(=N\NC(=O)c1cc(-c2cccc(OC(C)C)c2)nc2ccccc12)c1cccnc1	> 30 µM (not active)

Tested on: not listed separately
Assay: HEp-2 cell cytotoxicity, dose response, cytotoxicity control for RSV inhibitor project, HTS (AID 2410)
Type: functional
Conditions: human respiratory syncytial virus

SMILES	CC50
Cc1nc(N2CCOCC2)nc(N2CCCCC2C)c1[N+](=O)[O-] (stereo unspecified)	21.9 µM (active)
CSc1ccccc1OCc1cc(C(=O)N(C)C2CCCc3ccccc32)no1 (stereo unspecified)	20.4 µM (active)
CCc1noc(C)c1C(=O)Nc1ccc(S(=O)(=O)N2CCC(C)CC2)cc1	32.9 µM (active)
COc1ccc2nc(Nc3ccccc3)sc2c1	33.6 µM (active)
CN1c2ccccc2Oc2nnc(Cl)cc21	43.3 µM (active)
COc1ccc(C(=O)/C=C/c2ccc(F)cc2)c(OC(=O)c2ccc([N+](=O)[O-])cc2)c1	20.5 µM (active)
COc1ccccc1/C=C/[C@@H]1C[C@H]2CN(Cc3cccc(Cl)c3)C(=O)[C@]23CCCN13	38.4 µM (active)
CCCCc1c(O)nc2ccc(C)cc2c1C	26.6 µM (active)
O=C1NC(=O)/C(=C/c2cccc([N+](=O)[O-])c2)N1	31.2 µM (active)
Cc1ccc(-c2ccc(/C=N\NC(=O)C3C(=O)NCC3c3ccccc3)o2)cc1Cl (stereo unspecified)	13 µM (active)

Biological target: Cytochrome P450 2C19 (Homo sapiens, UniProt P33261)
Assay: Cytochrome panel assay with activity outcomes. Panel member name: p450-cyp2c19 Compounds with AC50 equal or less than 10 uM are considered active
Type: functional
Conditions: not given

Sequence of Cytochrome P450 2C19 (P33261 whole entry): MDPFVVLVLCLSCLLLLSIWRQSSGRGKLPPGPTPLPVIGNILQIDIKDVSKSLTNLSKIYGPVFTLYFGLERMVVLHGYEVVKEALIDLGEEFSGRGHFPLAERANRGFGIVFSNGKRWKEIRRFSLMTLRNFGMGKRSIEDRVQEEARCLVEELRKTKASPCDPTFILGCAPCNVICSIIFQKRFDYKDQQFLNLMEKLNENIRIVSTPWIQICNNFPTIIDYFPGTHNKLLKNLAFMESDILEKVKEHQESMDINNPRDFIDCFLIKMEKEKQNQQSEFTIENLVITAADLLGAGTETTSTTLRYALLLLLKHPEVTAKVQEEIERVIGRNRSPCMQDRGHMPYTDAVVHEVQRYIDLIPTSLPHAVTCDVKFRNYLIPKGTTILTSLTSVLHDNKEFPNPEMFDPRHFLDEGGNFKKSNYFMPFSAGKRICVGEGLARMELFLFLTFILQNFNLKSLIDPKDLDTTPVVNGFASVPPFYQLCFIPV

SMILES	AC50
C[C@@]12C=CC(=O)C=C1CC[C@@H]1[C@@H]2[C@H](O)C[C@]2(C)[C@@H]1CC[C@]2(O)C(=O)CO	inconclusive
N#C[C@@H](/N=N\c1ccccc1C(=O)O)C(N)=O	inconclusive
O=C(O)[C@H](Cc1c[nH]c2ccccc12)N1C(=O)c2ccccc2C1=O	inconclusive

Same assay, conditions: read-out: AC50

SMILES	AC50
COC(=O)[C@@]1(Cc2ccc(OC)cc2)[C@H]2c3cc(C(=O)N4CCCC4)n(Cc4ccccn4)c3C[C@H]2CN1C(=O)c1ccccc1	39.8 µM (inconclusive)
Cc1ccccc1OCCCN1CCCC1	10 µM (inconclusive)
Cc1ccc(NC(=O)CCC(=O)NNC(=O)c2cccs2)c(C)c1	28.2 µM (inconclusive)
O=C(O)CCC(=O)CCC(=O)c1ccccc1	39.8 µM (inconclusive)
CCOC(=O)N1CCN(C(=O)c2ccc(NC(C)=O)cc2)CC1	22.4 µM (inconclusive)
O=C(NCc1ccccc1Cl)c1cnccn1	20 µM (inconclusive)
